In article PMC9032693, “Biological Evaluation of New Thienopyridinium and Thienopyrimidinium Derivatives as Human Choline Kinase Inhibitors” (Pharmaceutics, 2022):
Like-named read-outs stand apart in the source and are kept apart here.

What was measured:
HeLa = test: Antiproliferative activity, resazurin assay, 72 h; format: cell-based, human
Method: (§1) Human cervix carcinoma (HeLa), Non-small lung adenocarcinoma (A549), Colon adenocarcinoma (HT29), and human triple negative breast cancer (MDA-MB-231) were cultured in Dulbecco’s modified Eagle’s media (DMEM). B-acute lymphoblastic leukemia (RS4;11 and SEM), T-acute lymphoblastic leukemia (Jurkat), and human promyelocytic cells (HL-60), were cultured in RPMI-1640 medium. Both media were purchased from Gibco, Life Technologies (Milan, Italy) and supplemented with 10% Fetal Bovine Serum (FBS, Invitrogen, Milan, Italy,). Every six months, each cell line was checked for the presence of mycoplasma by RT-PCR.
(§2) Stock solutions (10 mM) of the different compounds were made in DMSO. Cancer cells were seeded in tissue-treated, flat bottom, 384-well plates (Corning) according to their optimal density, (A549 1000 cells/wells; MDA-MB-231, HeLa and HT-29 2000 cells/well and finally Jurkat, HL-60 SEM and RS4;11 20.000 cells/well) in 27 µL of complete medium per well.
(§3) The day after cell seeding and immediately before cell treatment, 10 mM stock solutions of the compounds were pre-diluted to a […] concentration in 250 µL of Hank’s in a 96-well plate (Corning). Subsequent 1:5 dilutions were carried out using a microlab STAR 96-CORE liquid handling system (Hamilton), a robotized liquid handling tool that was employed for all steps, from cell seeding to drug dilution and cell treatment to ensure high reproducibility while reducing time for large screening execution. This pre-dilution step was necessary to avoid DMSO-related cytotoxicity and compound precipitation in the cell culture medium. In every case, DMSO concentration never exceeded 0.1%.
(§4) Positive (Bortezomib 1 µM) and negative (0.1% DMSO) controls were included in all the screened plates to allow for monitoring the Z’ factor throughout the entire screening. Cells were treated with 3 µL of the previously made dilutions; thus, generating a 6-point 5-fold dose–response curve starting from 10 µM. Within a plate, each drug concentration was tested in duplicate in two independent experiments for each compound.
(§5) Treated cells were then placed inside the CO2 incubator for 72 h at 37 °C. Cell viability was assessed by resazurin assay, in which 3 µL of resazurin per well were added using the previously described automated platform. Plates were placed in the incubator at 37 °C for 2 h, and then the fluorescence of each plate was read using a Spark 10 M multimode microplate reader (Tecan Group Ltd., Mannedorf, Switzerland) with 535 nm excitation wavelength and 600 nm emission wavelength.

Jurkat = test: Antiproliferative activity, resazurin assay, 72 h; format: cell-based, human
Method: as §1, §2, §3, §4, §5

RS 4;11 = test: Antiproliferative activity, resazurin assay, 72 h; format: cell-based, human
Method: as §1, §2, §3, §4, §5

HL-60 = test: Antiproliferative activity, resazurin assay, 72 h; format: cell-based, human
Method: as §1, §2, §3, §4, §5

HT29 = test: Antiproliferative activity, resazurin assay, 72 h; format: cell-based, human
Method: as §1, §2, §3, §4, §5

SEM cells = test: Antiproliferative activity, resazurin assay, 72 h; format: cell-based, human
Method: as §1, §2, §3, §4, §5

MDA-MB-231 = test: Antiproliferative activity, resazurin assay, 72 h; format: cell-based, human
Method: as §1, §2, §3, §4, §5

A549 = test: Antiproliferative activity, resazurin assay, 72 h; format: cell-based, human
Method: as §1, §2, §3, §4, §5

CKα1 = molecular target: T1, CKα1 (Homo sapiens, UniProt P35790); test: Choline kinase assay ([methyl-14C]choline into PCho, purified enzyme); format: biochemical; settings: for % Inhibition at 10 µM: purified CKα1, inhibitor 10 µM; for % Inhibition at 10 µM / % Inhibition at 30 µM: end-point assay; for % Inhibition at 30 µM: purified CKα1, inhibitor 30 µM; for IC50: concentration required to inhibit CKα1 enzyme by 50%
T1 construct: an N-terminally His-tagged truncated form of CKα1 (Δ75–457) was cloned into a pET-28a vector; His tag (N); made in house; host or cells: E. coli BL21 (DE3) Star
T1 sequence (P35790 75-457): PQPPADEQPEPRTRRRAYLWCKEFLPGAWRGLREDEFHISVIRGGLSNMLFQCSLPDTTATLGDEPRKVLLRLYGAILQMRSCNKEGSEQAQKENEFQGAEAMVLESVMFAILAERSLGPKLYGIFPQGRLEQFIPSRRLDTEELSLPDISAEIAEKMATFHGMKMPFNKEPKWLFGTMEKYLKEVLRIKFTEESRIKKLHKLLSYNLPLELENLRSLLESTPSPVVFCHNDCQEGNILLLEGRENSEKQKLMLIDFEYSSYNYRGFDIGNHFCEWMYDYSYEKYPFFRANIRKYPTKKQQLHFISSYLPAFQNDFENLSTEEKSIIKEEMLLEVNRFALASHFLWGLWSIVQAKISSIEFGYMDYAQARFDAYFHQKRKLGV
Method: The protein was produced and purified as previously described. Briefly, an N-terminally His-tagged truncated form of CKα1 (Δ75–457) was cloned into a pET-28a vector and expressed at 37 °C in E. coli BL21 (DE3) Star cells using 1 mM isopropyl β-D-1-thiogalactopyranoside (IPTG). After centrifugation, the cellular pellet was resuspended in 50 mM Tris-HCl pH 7.5, 500 mM NaCl, 0.2 mM phenylmethylsulphonyl fluoride (PMSF), DNase, and 0.5 mM β-mercaptoethanol, sonicated and subjected to a two-step purification procedure to isolate the target enzyme. […] Protein elution was completed using buffer A + 400 mM imidazole. A second size-exclusion chromatography step was then carried out to achieve complete purity. To this end, we used a HiPrep 26/60 Sephacryl 100 HR column (GE Healthcare, Little Chalfont, Buckinghamshire, UK) and a 20 mM Tris/HCl pH 7.5, 150 mM NaCl running buffer.
To study the effect of the compounds on CKα, an in vitro enzymatic assay was performed using the purified enzyme as previously reported in [19, 28, 29]. Briefly, the incorporation of ^14C from [methyl-^14C]choline into PCho in either the absence (control) or presence of different inhibitors at varying concentrations was used to determine the CK activity. The reaction mixture included 20 ng of purified CKα1, 10 mM ATP, 10 mM MgCl2, 100 mM Tris-HCl pH 8.5, and increasing concentrations of compounds. The mixture was preincubated at 37 °C for 5 min. Then, [methyl-^14C]choline chloride (1 mM, 4500 dpm/nmol) was added and the reaction was left to proceed for 10 min at 37 °C. The assay was stopped by immersing the reaction tubes in boiling water. PCho was separated by Thin Layer Chromatography using methanol/0.6% NaCl/28% NH4OH in water (50:50:5, v/v/v) as solvent. The radioactivity associated into PCho was determined in a Beckman 6000-TA (Madrid, Spain) liquid scintillation counter. The 50% inhibitory concentrations (IC50 values) were determined from the % enzyme activity at different concentrations of synthetic inhibitors relative to the control by using a sigmoidal dose–response curve (ED50plus v1.0 software).

GI50 (HeLa) [nM] | GI50 (Jurkat) [µM] | GI50 (HL-60) [nM] | GI50 (HT29) [nM] | GI50 (MDA-MB-231) [nM] | GI50 (A549) [nM] | % Inhibition at 10 µM (CKα1) [%] | % Inhibition at 30 µM (CKα1) [%] | IC50 (CKα1) [nM] | GI50 (HeLa; Homo sapiens, HeLa) [nM] | GI50 (Jurkat; Homo sapiens, Jurkat) [µM] | GI50 (HL-60; Homo sapiens, HL-60) [nM] | GI50 (HT29; Homo sapiens, HT-29) [nM] | GI50 (MDA-MB-231; Homo sapiens, MDA-MB-231) [nM] | GI50 (A549; Homo sapiens, A549) [nM] | IC50 (CKα1; listed as Fa-34) [nM] | SMILES | GI50 (RS 4;11) [nM] | GI50 (SEM cells) [µM] | GI50 (RS 4;11; Homo sapiens, RS4-11) [nM]
910 ± 90 | > 10 | 550 ± 20 | 1890 ± 200 | 320 ± 50 | 290 ± 300 | 79.23 | 92.88 |  |  |  |  |  |  |  |  | [Br-].[Br-].c1cc2c(s1)c(N1CCCC1)nc[n+]2Cc1ccc(OCCOc2ccc(C[n+]3cnc(N4CCCC4)c4sccc43)cc2)cc1 [Ff-8] | 3470 ± 300 | > 10 | 
1400 ± 20 | > 10 | 760 ± 50 | 4500 ± 400 | 1090 ± 100 | 1170 ± 10 | 51.54 | 74.39 | ≥ 10000 |  |  |  |  |  |  |  | [Br-].[Br-].c1cc2c(N3CCCCC3)nc[n+](Cc3ccc(CCc4ccc(C[n+]5cnc(N6CCCCC6)c6ccsc65)cc4)cc3)c2s1 [Fg-31] | 7200 ± 1000 | > 10 | 
420 ± 50 | 6.7 ± 0.8 | 190 ± 10 | 930 ± 40 | 500 ± 20 | 190 ± 30 | 46.43 | 73.19 | ≥ 10000 |  |  |  |  |  |  |  | [Br-].[Br-].c1cc2c(N3CCCCC3)nc[n+](Cc3ccc(CCCCc4ccc(C[n+]5cnc(N6CCCCC6)c6ccsc65)cc4)cc3)c2s1 [Ff-6] | 1500 ± 200 | 2.52 ± 0.2 | 
 |  |  |  |  |  |  |  |  | 830 ± 100 | 0.41 ± 0.1 | 930 ± 100 | 400 ± 200 | 170 ± 50 | 450 ± 90 |  | C/[N+](c1ccc(Cl)cc1)=c1\ccn(Cc2ccc(-c3ccc(Cn4cc/c(=[N+](/C)c5ccc(Cl)cc5)c5ccccc54)cc3)cc2)c2ccccc12 [RSM-932A, reference compound] |  |  | 170 ± 40
2190 ± 300 | 8.53 ± 1.1 | 470 ± 30 | 3650 ± 500 | 680 ± 70 | 390 ± 40 | 93.07 | 94.25 | 2330 ± 200 |  |  |  |  |  |  |  | [Br-].[Br-].c1cc2c(s1)c(N1CCCC1)cc[n+]2Cc1ccc(CCc2ccc(C[n+]3ccc(N4CCCC4)c4sccc43)cc2)cc1 [Fg-11] | 5720 ± 500 | > 10 | 
280 ± 20 | 1.46 ± 0.1 | 140 ± 10 | 1070 ± 100 | 410 ± 20 | 160 ± 10 | 98.90 | 97.80 | 1670 ± 80 |  |  |  |  |  |  |  | [Br-].[Br-].c1cc2c(s1)c(N1CCCCC1)nc[n+]2Cc1ccc(CCCCc2ccc(C[n+]3cnc(N4CCCCC4)c4sccc43)cc2)cc1 [Fa-33] | 760 ± 100 | 1.37 ± 0.07 | 
1030 ± 100 | > 10 | 200 ± 10 | 1730 ± 300 | 1100 ± 200 | 340 ± 60 | 64.21 | 85.71 | ≥ 5000 |  |  |  |  |  |  |  | [Br-].[Br-].c1cc2c(N3CCCCC3)nc[n+](Cc3ccc(OCCOc4ccc(C[n+]5cnc(N6CCCCC6)c6ccsc65)cc4)cc3)c2s1 [Ff-5] | 2450 ± 20 | 3.27 ± 0.03 | 
930 ± 10 | 6.1 ± 1.1 | 270 ± 10 | 1630 ± 100 | 910 ± 80 | 290 ± 30 | 94.31 | 99.02 | 700 ± 30 |  |  |  |  |  |  | 704 | [Br-].[Br-].c1cc2c(s1)c(N1CCCCCC1)nc[n+]2Cc1ccc(OCCOc2ccc(C[n+]3cnc(N4CCCCCC4)c4sccc43)cc2)cc1 [Ff-34] | 1800 ± 100 | 2.5 ± 0.1 | 

SMILES | GI50 (HeLa) [nM] | GI50 (Jurkat) [µM] | GI50 (HL-60) [nM] | GI50 (HT29) [nM] | GI50 (MDA-MB-231) [nM] | GI50 (A549) [nM] | % Inhibition at 10 µM (CKα1) [%] | % Inhibition at 30 µM (CKα1) [%] | IC50 (CKα1) [nM] | GI50 (HeLa; Homo sapiens, HeLa) [nM] | GI50 (Jurkat; Homo sapiens, Jurkat) [µM] | GI50 (HL-60; Homo sapiens, HL-60) [nM] | GI50 (HT29; Homo sapiens, HT-29) [nM] | GI50 (MDA-MB-231; Homo sapiens, MDA-MB-231) [nM] | GI50 (A549; Homo sapiens, A549) [nM] | IC50 (CKα1; listed as Fa-34) [nM] | GI50 (RS 4;11) [nM] | GI50 (SEM cells) [µM] | GI50 (RS 4;11; Homo sapiens, RS4-11) [nM]
[Br-].[Br-].c1cc2c(N3CCCCCC3)nc[n+](Cc3ccc(CCCCc4ccc(C[n+]5cnc(N6CCCCCC6)c6ccsc65)cc4)cc3)c2s1 [Ff-35, ((1,1′-((butane-1,4-diylbis(4,1-phenylene))bis(methylene))bis(4-(azepan-1-yl)thieno[2,3-d]pyrimidin-1-ium)) bromide] | 300 ± 10 | 1.54 ± 0.02 | 150 ± 10 | 780 ± 30 | 97 ± 1 | 140 ± 20 |  |  | 460 ± 80 |  |  |  |  |  |  |  | 950 ± 50 | 0.76 ± 0.03 | 
[Br-].[Br-].c1cc2c(s1)c(N1CCCCCC1)cc[n+]2Cc1ccc(-c2ccc(C[n+]3ccc(N4CCCCCC4)c4sccc43)cc2)cc1 [Fg-10] | 1590 ± 100 | 6.33 ± 0.6 | 440 ± 50 | 1760 ± 200 | 1460 ± 200 | 310 ± 10 | 80.76 | 96.98 | ≥ 10000 |  |  |  |  |  |  |  | 2770 ± 900 | 3.51 ± 0.8 | 
[Br-].[Br-].c1cc2c(s1)c(N1CCCC1)nc[n+]2Cc1ccc(-c2ccc(C[n+]3cnc(N4CCCC4)c4sccc43)cc2)cc1 [Fa-21] | > 10000 | > 10 | 3400 ± 700 | > 10000 | 1710 ± 400 | 220 ± 10 | 74.57 | 86.58 | ≥ 5000 |  |  |  |  |  |  |  | > 10000 | > 10 | 
CN(C)c1cc[n+](Cc2ccc(CCCCc3ccc(C[n+]4ccc(N(C)C)cc4)cc3)cc2)cc1 [MN-48b, reference compound] | 1900 ± 100 | 0.35 ± 0.1 | 320 ± 30 | 1900 ± 400 | 310 ± 120 | 540 ± 200 |  |  | 780 ± 30 |  |  |  |  |  |  |  | 1000 ± 300 |  | 
[Br-].[Br-].c1cc2c(N3CCCCC3)nc[n+](Cc3ccc(-c4ccc(C[n+]5cnc(N6CCCCC6)c6ccsc65)cc4)cc3)c2s1 [Fg-30] | 2890 ± 300 | > 10 |  | 8320 ± 900 | 800 ± 20 | 600 ± 20 | 75.46 | 85.71 | ≥ 5000 |  |  |  |  |  |  |  | > 10000 | > 10 | 
CN(c1ccc(Cl)cc1)c1nc[n+](Cc2ccc(-c3ccc(C[n+]4cnc(N(C)c5ccc(Cl)cc5)c5ccsc54)cc3)cc2)c2sccc12 [Fp-8] | 1770 ± 100 | > 10 | 900 ± 80 | 3930 ± 500 | 830 ± 40 | 160 ± 10 |  |  |  |  |  |  |  |  |  |  | 3380 ± 50 | > 10 | 
